Data on nine compounds can be found in PMC6008489 (Bioorganic & Medicinal Chemistry, 2018).

Common to all, as to type: biochemical
For one assay, the target named is AurB (Homo sapiens, UniProt Q96GD4). In words: 26-kinase panel mobility shift assay, single concentration. The note with it: read-out: % Inhibition AurB.
The next assay deals with T1, AurA (Homo sapiens, UniProt O14965).
T1 construct: purchased Perkin Elmer (ProfilerPro assay kit 1)
T1 sequence (O14965 1-403): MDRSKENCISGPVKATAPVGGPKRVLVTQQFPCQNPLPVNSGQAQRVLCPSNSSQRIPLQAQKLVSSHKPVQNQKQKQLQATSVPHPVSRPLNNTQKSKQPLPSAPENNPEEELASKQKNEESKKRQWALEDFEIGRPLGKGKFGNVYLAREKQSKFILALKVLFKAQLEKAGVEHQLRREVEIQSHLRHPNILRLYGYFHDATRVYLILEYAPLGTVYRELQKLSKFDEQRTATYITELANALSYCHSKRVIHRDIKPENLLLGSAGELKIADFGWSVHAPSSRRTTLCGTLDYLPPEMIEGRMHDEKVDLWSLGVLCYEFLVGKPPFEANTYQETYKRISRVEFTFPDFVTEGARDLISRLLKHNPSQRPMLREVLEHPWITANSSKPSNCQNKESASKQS
Described as above. The note with it: read-out: % Inhibition AurA.

The target in the next assay is T2, RSK1 (Homo sapiens, UniProt Q15418).
T2 construct: purchased Perkin Elmer (ProfilerPro assay kit 1)
T2 sequence (Q15418 whole entry): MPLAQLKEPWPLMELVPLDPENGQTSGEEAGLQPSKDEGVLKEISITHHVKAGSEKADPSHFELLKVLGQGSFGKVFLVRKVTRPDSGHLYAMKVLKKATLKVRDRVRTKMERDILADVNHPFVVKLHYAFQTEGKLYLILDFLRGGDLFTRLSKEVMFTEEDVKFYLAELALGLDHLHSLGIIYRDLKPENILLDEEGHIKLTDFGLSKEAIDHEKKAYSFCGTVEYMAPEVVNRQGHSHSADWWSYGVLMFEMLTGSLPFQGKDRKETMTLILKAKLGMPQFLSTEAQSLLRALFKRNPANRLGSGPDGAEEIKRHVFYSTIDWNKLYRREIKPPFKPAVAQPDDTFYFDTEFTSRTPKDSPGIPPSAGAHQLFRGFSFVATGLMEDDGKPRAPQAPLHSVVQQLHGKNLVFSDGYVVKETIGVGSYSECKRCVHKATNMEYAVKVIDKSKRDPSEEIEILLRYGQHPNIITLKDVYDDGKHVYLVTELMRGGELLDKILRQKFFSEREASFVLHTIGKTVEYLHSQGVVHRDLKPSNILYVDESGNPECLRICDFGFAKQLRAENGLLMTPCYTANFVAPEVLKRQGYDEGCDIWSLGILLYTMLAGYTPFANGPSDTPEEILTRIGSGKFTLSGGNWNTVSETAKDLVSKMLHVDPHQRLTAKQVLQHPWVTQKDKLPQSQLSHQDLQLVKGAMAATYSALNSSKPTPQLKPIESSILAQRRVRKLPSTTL
Described as above. To be noted: read-out: % Inhibition RSK1.

Another assay deals with T3, LYN (Homo sapiens, UniProt P07948).
T3 construct: purchased Perkin Elmer (ProfilerPro assay kit 1)
T3 sequence (P07948 whole entry): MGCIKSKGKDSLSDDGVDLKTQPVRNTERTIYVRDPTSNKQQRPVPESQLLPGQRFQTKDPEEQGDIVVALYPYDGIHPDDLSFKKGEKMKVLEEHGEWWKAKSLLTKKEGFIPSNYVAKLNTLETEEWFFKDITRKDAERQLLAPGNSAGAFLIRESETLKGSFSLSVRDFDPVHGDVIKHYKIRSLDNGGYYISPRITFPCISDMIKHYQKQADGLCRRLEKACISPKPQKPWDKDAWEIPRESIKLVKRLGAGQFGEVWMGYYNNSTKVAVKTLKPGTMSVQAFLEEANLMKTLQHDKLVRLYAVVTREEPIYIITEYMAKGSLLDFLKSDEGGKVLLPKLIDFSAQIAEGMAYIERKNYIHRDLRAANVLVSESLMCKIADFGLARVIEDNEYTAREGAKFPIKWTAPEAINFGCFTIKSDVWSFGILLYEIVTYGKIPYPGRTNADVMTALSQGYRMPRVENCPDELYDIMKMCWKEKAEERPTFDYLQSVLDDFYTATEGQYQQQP
The assay is described as above. To be noted: read-out: % Inhibition LYN.

In another assay the target is T4, PKD2 (Homo sapiens, UniProt Q9BZL6).
T4 construct: purchased Perkin Elmer (ProfilerPro assay kit 1)
T4 sequence (Q9BZL6 1-878): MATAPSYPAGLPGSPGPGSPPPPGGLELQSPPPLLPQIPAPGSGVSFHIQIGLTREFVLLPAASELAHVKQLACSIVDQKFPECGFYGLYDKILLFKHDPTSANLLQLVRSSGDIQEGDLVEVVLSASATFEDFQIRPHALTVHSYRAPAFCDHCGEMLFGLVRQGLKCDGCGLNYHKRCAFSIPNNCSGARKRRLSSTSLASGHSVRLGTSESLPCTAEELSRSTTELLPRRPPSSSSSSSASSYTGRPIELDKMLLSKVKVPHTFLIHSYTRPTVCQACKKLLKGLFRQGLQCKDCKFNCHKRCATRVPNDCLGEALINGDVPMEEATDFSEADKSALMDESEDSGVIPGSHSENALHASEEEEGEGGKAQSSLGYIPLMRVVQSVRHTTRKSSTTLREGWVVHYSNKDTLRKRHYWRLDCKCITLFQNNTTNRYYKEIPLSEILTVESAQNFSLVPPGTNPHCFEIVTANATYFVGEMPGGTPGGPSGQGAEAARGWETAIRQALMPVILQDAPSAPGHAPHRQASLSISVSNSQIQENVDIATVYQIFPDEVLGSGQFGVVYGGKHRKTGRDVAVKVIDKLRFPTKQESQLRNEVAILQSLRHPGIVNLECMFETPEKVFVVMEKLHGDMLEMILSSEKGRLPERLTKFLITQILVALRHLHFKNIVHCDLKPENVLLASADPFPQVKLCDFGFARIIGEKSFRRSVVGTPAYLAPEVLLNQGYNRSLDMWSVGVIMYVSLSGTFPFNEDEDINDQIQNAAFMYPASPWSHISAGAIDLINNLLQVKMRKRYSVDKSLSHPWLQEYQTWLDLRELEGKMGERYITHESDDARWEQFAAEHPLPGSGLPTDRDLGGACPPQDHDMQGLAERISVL
The assay is described as above. The note with it: read-out: % Inhibition PKD2.

Another assay deals with T5, FYN (Homo sapiens, UniProt P06241).
T5 construct: purchased Perkin Elmer (ProfilerPro assay kit 1)
T5 sequence (P06241 whole entry): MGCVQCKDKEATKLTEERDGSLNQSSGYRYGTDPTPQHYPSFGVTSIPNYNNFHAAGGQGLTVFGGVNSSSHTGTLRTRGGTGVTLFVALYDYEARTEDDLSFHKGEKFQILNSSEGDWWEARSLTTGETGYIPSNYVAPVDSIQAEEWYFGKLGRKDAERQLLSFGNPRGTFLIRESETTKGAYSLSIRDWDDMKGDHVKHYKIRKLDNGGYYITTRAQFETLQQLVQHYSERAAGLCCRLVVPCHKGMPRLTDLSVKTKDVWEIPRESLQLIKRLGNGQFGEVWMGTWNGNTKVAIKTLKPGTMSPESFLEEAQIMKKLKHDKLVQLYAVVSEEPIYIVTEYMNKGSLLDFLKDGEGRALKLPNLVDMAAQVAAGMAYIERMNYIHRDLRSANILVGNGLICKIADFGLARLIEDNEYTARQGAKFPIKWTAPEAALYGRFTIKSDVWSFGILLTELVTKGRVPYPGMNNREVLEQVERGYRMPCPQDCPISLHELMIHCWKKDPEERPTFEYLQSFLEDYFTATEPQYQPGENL
Described as above. The note with it: read-out: % Inhibition FYN.

For a further assay, the target named is T6, MPS1 (Homo sapiens, UniProt P33981).
T6 sequence (P33981 1-857): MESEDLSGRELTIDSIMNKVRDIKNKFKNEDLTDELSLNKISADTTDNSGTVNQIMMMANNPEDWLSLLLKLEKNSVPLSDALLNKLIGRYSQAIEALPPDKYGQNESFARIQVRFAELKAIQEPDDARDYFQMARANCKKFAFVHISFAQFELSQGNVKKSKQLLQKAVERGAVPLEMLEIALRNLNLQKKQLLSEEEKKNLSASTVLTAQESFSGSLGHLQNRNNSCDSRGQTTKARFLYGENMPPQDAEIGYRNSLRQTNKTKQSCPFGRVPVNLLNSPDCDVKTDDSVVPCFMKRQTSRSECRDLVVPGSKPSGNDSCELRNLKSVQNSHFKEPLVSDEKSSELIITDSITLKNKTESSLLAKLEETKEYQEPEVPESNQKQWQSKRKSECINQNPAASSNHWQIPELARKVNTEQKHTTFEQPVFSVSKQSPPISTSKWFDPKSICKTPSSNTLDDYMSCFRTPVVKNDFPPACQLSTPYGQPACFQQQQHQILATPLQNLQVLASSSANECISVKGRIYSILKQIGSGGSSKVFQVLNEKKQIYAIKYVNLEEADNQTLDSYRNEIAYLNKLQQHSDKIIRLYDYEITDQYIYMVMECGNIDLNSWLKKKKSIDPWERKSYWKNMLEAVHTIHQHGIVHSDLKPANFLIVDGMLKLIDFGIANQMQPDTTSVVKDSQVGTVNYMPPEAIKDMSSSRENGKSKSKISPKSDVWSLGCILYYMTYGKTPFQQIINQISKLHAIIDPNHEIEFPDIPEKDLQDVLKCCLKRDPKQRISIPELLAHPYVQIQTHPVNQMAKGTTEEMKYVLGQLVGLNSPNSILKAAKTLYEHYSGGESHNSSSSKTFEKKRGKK
The note with it: for Ki: calculated from mean IC50 using the Cheng-Prusoff equation; for MPS1 ligand efficiency (LE): from Ki.

The target in another assay is T7, Aurora A (Homo sapiens, UniProt O14965).
T7 sequence (O14965 1-403): T1 sequence (O14965 1-403)
The note with it: for Ki: calculated from mean IC50 using the Cheng-Prusoff equation, read-out: AurA Ki; for AurA ligand efficiency (LE): from Ki.

The target in the next assay is T8, AKT2 (Homo sapiens, UniProt P31751).
T8 construct: purchased Perkin Elmer ProfilerPro assay kit 1
T8 sequence (P31751 whole entry): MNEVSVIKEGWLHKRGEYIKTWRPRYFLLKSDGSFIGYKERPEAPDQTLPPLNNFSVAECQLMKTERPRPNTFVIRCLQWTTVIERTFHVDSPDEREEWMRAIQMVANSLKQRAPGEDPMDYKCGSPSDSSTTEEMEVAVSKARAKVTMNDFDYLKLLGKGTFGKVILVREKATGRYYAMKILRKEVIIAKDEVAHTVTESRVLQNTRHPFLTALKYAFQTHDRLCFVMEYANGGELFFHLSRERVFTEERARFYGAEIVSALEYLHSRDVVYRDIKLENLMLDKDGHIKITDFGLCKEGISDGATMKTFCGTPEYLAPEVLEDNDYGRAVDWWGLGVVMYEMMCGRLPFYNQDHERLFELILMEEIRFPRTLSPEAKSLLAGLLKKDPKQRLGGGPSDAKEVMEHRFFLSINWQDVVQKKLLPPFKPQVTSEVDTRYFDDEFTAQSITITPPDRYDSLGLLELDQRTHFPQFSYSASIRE
In words: 26-kinase panel mobility shift assay, single concentration. To be noted: read-out: % Inhibition AKT2.

The target of the next assay is T9, AKT1 (Homo sapiens, UniProt P31749).
T9 construct: purchased Perkin Elmer ProfilerPro assay kit 1
T9 sequence (P31749 whole entry): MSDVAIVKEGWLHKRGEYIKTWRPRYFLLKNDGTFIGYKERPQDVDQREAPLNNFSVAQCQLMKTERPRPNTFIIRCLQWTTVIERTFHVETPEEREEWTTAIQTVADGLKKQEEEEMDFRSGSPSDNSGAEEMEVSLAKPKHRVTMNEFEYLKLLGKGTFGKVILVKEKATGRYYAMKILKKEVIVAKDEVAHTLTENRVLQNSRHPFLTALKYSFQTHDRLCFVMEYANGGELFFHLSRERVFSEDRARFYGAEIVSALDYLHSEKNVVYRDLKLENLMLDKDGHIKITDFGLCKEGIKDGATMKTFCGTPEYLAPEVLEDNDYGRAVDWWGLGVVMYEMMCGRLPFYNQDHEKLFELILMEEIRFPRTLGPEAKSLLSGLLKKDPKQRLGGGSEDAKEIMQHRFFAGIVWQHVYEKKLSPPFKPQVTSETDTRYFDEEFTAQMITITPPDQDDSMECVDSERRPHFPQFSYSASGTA
Described as above. To be noted: read-out: % Inhibition AKT1.

AurB, sequence (Q96GD4 whole entry): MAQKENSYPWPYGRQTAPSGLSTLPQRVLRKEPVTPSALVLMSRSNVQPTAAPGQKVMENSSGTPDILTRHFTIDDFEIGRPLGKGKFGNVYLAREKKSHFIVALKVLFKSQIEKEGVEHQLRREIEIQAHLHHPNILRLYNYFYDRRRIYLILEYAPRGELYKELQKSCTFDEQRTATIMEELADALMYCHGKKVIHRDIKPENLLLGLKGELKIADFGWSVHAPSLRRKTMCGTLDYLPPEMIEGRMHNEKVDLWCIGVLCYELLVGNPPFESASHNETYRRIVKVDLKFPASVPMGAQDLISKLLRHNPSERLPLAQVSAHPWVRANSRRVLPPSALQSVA
Description for AKT1: Mobility Shift Assay Protocol
(§1) Screening of 26 kinases using a mobility shift assay
(§2) A mobility shift assay to determine kinase inhibition was carried out using a
(§3) modified version of the ProfilerPro assay kit 1 (Perkin Elmer, Coventry, UK)
(§4) including MPS1 and Aurora B. Each kit contained an enzyme plate, a substrate
(§5) plate, reconstitution buffer, 1 M DTT, protease inhibitor cocktail and termination
(§6) buffer. Test compounds were added as a solution in DMSO.
(§7) peptide phosphorylation assay was carried out as per the manufacturer’s
(§8) instructions. The electrophoretic separation and analysis of the phosphorylated
(§9) and non-phosphorylated peptides was carried out on a 4-sipper chip using a
(§10) LabChip EZReader II (Perkin Elmer). Results were expressed as % inhibition of
(§11) peptide phosphorylation relative to control wells for 0 % (no test compound) and
(§12) 100 % (no ATP) inhibition. The percentage inhibition was calculated using the
(§13) % Inhibition = [1 - (% Conversion Sample / % Conversion 0% Inhibition Control)] x 100
Description for AKT2: (§14) In order to test the biochemical activity of our fragment library, a panel of 26 structurally diverse protein kinases was used.
as §1, §2, §3, §4, §5, §6, §7, §8, §9, §10, §11, §12, §13
Description for AurA: Mobility Shift Assay Protocol
as §1, §2, §3, §4, §5, §6, §7, §8, §9, §10, §11, §12, §13
Description for AurB: Mobility Shift Assay Protocol
as §1, §2, §3, §4, §5, §6, §7, §8, §9, §10, §11, §12, §13
Description for Aurora A: (§15) IC50 values were obtained for an expanded version of the fragment library using the previously described mobility shift assay.[44] Subsequently, Ki values were estimated from IC50 values to allow better comparison of the activity against targets which were measured at different substrate concentrations (Supplementary data Table 1).
(§16) IC50 values for MPS1, Aurora A and Aurora B inhibition were determined as previously described,[44] and Ki values were estimated from the mean IC50 values using the Cheng-Prusoff equation.[48]
(§17) Kinase [ATP] (M) [Enzyme] (nM) [Peptide Substrate] (M) MgCl2 (mM)
(§18) For all compounds, IC50 values for MPS1, Aurora A, and Aurora B were determined
(§19) using MPS1 and Aurora A/B mobility shift assays as described previously.1 IC50
(§20) values were calculated from a four-parameter logistic fit of percentage inhibition
(§21) versus concentration (at 8 compound concentrations) using GraphPad Prism 5
(§22) (GraphPad Software, Inc., CA, USA). Mean IC50 values were determined from two
(§23) independent measurements each carried out in duplicate. Ki values were estimated
(§24) from the mean IC50 values using the Cheng-Prusoff equation.
Description for FYN: as §2, §3, §4, §5, §6, §7, §8, §9, §10, §11, §12, §13
Description for LYN: as §2, §3, §4, §5, §6, §7, §8, §9, §10, §11, §12, §13
Description for MPS1: as §15, §16, §17, §18, §19, §20, §21, §22, §23, §24
Description for PKD2: as §14, §1, §2, §3, §4, §5, §6, §7, §8, §9, §10, §11, §12, §13
Description for RSK1: Mobility Shift Assay Protocol
as §1, §2, §3, §4, §5, §6, §7, §8, §9, §10, §11, §12, §13

With `Nc1ccc[nH]c1=O` [Compound 1, 3-aminopyridin-2-one], the inhibition at 100 µM was 20% on AurB; 58% at AurA; 19% at RSK1; 15% at LYN; 10% at PKD2; 11% on FYN. In addition, the inhibition at 100 µM worked out at 77% at AKT2 and 42% on AKT1. Moreover, the Ki on MPS1 was > 1000 µM; on Aurora A, 361 µM. Further, the “AurA ligand efficiency (LE)” value on Aurora A was 0.59.
For `Cn1cc(-c2c[nH]c(=O)c(N)c2)cn1` [Compound 2, 3-Amino-5-(1-methyl-1H-pyrazol-4-yl)pyridin-2(1H)-one], the inhibition at 100 µM at AurB was 96%; on AurA, 100%; on RSK1, 89%; on LYN, 49%; at PKD2 it was 67%; on FYN it was 34%. Also, the inhibition at 100 µM on AKT2 and at AKT1 was 97% throughout. For the same compound, the Ki at MPS1 was 94.7 µM; at Aurora A, 7.5 µM. The “MPS1 ligand efficiency (LE)” value on MPS1 came out at 0.39. The “AurA ligand efficiency (LE)” value on Aurora A worked out at 0.53.
As for `COc1ncc(-c2ccncc2)cc1N` [Compound 5, 6-Methoxy-3,4′-bipyridin-5-amine], the inhibition at 100 µM on AurB is 35%; on AurA, 46%; on RSK1 it was 23%; on LYN, 15%; at PKD2, 26%; on FYN it was 9%. In addition, the values for the inhibition at 100 µM on AKT2 and on AKT1 were 4% and 22%, respectively. For the same compound, the Ki on MPS1 was 91.2 µM; at Aurora A, 185 µM. Also, the “MPS1 ligand efficiency (LE)” value at MPS1 stood at 0.37. In addition, on Aurora A, the “AurA ligand efficiency (LE)” value turned out to be 0.31.
With `Nc1cc(-c2ccnc3ccccc23)c[nH]c1=O` [Compound 6], the inhibition at 100 µM at AurB stood at 61%; at AurA, 62%; on RSK1, 10%; at LYN, 27%; at PKD2, 36%; at FYN it was 40%. Also, the inhibition at 100 µM on AKT2 is 9%; at AKT1, 15%. Further, the Ki at MPS1 was 30.2 µM; on Aurora A, 76.3 µM. Further, on MPS1, the “MPS1 ligand efficiency (LE)” value is on record as 0.34. Further, the “AurA ligand efficiency (LE)” value at Aurora A was 0.31.
In the case of `CNc1nccc(-c2c[nH]c(=O)c(N)c2)n1` [Compound 7], the inhibition at 100 µM at AurB is 94%; on AurA, 98%; on RSK1, 91%; on LYN, 63%; on PKD2, 70%; at FYN it was 66%. The inhibition at 100 µM on AKT2 was found to be 93%; at AKT1, 89%. For the same compound, the inhibition constant Ki is 25.6 µM at MPS1 and 21.3 µM on Aurora A. Further, the “MPS1 ligand efficiency (LE)” value on MPS1 is reported as 0.39. Also, the “AurA ligand efficiency (LE)” value on Aurora A turned out to be 0.40.
For `Nc1cc(-c2ccnc(NC3CC3)n2)c[nH]c1=O` [Compound 8], the inhibition at 100 µM on AurB stood at 79%; at AurA it was 87%; on RSK1, 89%; at LYN, 42%; at PKD2 it was 81%; on FYN, 51%. Further, the inhibition at 100 µM on AKT2 and on AKT1 was 18% each time. Moreover, the Ki is 11 µM on MPS1 and 30.2 µM at Aurora A. For the same compound, the “MPS1 ligand efficiency (LE)” value on MPS1 came out at 0.37. Also, on Aurora A, the “AurA ligand efficiency (LE)” value was 0.34.
With `Cc1nc(O)c(N)cc1-c1ccncc1` [Compound 15, 3-Amino-6-methyl-5-(pyridin-4-yl)pyridin-2-one], the inhibition at 100 µM on AurB was 77%; at AurA it was 49%; at RSK1 it was 17%; on LYN, 10%; at PKD2 it was 8%; at FYN, 6%. In addition, the inhibition at 100 µM on AKT2 is 17%; at AKT1, 10%. Besides, the Ki on MPS1 and at Aurora A was > 100 µM in each case.
As for `O=C(Nc1cc(-c2ccncc2)c[nH]c1=O)c1ccccc1` [Compound 16, N-(2-Oxo-5-(pyridin-4-yl)-1,2-dihydropyridin-3-yl)benzamide], the inhibition at 30 µM on AurB was 24%; on AurA it was 59%; at RSK1, 19%; on LYN, 55%; on PKD2, 30%; on FYN it was 59%. Besides, the figures for the inhibition at 30 µM at AKT2 and on AKT1 were 4% and 12%, respectively. For the same compound, the inhibition constant Ki at MPS1 was 5.4 µM; on Aurora A it was 3.3 µM. The “MPS1 ligand efficiency (LE)” value on MPS1 came out at 0.33. In addition, the “fold increase in inhibitory activity against MPS1 relative to compound 3” value at MPS1 (from Ki values, Table 1 and Table 2) was determined as 15 fold. In addition, the “AurA ligand efficiency (LE)” value on Aurora A stood at 0.34.
For `CN1CCN(c2ccc(C(=O)Nc3cc(-c4ccncc4)c[nH]c3=O)cc2)CC1` [Compound 22], the inhibition at 30 µM was 71% on AurB; 92% on AurA; 41% on RSK1; 93% at LYN; 46% at PKD2; 95% at FYN. The inhibition at 30 µM at AKT2 and at AKT1 was 13% each time. The Ki is 4.8 µM on MPS1 and 14.9 µM on Aurora A. Moreover, the “MPS1 ligand efficiency (LE)” value on MPS1 is 0.25. Also, on Aurora A, the “AurA ligand efficiency (LE)” value was 0.23.

As a reminder, the inhibition is the relative decrease from the control value, in per cent. One may read the Ki as the equilibrium dissociation constant of an inhibitor or competing ligand from its target.
